# Where a name gives a salt, the structure may show the parent alone.
# Molecular target: T1, recombinant human Lysyl Oxidase-Like 2 (LOXL2) (Homo sapiens, UniProt Q9Y4K0)
# T1 construct: purchased R&D systems
# T1 sequence (Q9Y4K0 26-774): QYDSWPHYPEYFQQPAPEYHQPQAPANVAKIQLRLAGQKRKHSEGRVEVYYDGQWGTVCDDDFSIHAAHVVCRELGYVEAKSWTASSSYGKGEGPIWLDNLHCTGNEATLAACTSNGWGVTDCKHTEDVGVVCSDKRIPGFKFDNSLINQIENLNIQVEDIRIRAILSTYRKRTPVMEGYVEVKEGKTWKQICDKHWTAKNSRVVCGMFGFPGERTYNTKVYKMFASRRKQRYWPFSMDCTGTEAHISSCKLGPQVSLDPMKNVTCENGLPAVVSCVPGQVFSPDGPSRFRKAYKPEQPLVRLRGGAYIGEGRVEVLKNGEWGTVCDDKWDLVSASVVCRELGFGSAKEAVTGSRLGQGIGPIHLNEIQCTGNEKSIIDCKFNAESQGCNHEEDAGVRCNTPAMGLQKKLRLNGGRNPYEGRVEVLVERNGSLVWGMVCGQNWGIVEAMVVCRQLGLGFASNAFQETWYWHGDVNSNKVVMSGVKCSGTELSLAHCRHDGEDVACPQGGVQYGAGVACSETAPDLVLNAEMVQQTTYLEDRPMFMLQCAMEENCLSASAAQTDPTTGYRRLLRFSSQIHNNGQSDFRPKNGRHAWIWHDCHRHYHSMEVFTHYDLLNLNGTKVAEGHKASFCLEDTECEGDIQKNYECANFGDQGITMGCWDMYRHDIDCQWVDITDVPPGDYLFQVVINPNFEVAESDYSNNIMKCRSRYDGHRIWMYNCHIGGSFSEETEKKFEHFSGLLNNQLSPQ
# Assay: Amplex Red HRP-coupled amine oxidase assay, recombinant human LOXL2
# Format: biochemical
# Settings: 60 min incubation with enzyme at 37° C., putrescine substrate, read-out: Inhibitory activity (IC50, nM) human LOXL2
# Experimental: The activities of the compounds according to the present invention against recombinant human Lysyl Oxidase-Like 2 (recombinant human LOXL2, R&D systems) were evaluated by measuring the levels of hydrogen peroxide in the HRP (horseradish peroxidase) coupled reactions, with the Amplex Red Hydrogen Peroxide Assay Kit (Molecular Probes, Invitrogen, USA). The tests were carried out at 37° C., and putrescine was used as a substrate. In the HRP coupling reaction, the oxidation of 10-acetyl-3,7-dihydroxyphenoxazine (Amplex Red reagent) by hydrogen peroxide generates a fluorescent product, i.e., resorufin. Briefly, the test compounds were dissolved in dimethyl sulfoxide (DMSO) at a concentration of 20 mM. Dose-response measurements were carried out by serial dilutions in DMSO to generate a six-point curve. The upper concentration was adjusted according to the potency of the compound, and then diluted with the reaction buffer to obtain a final DMSO concentration of 1%. Purified human LOXL2 in 50 mM sodium phosphate buffer (pH7.4) was added to each well of a 96 well black plate. The test compounds dissolved in DMSO were incubated with the human LOXL2 enzyme at 37° C. for 60 minutes. After the incubation for 60 minutes, a reaction mixture containing 400 μM Amplex Red reagent, 30 mM putrescine, and 2 U/mL HRP in 50 mM sodium phosphate buffer (pH 7.4) was added to each well. Fluorescence was measured with a microplate reader (Flexstation3, Molecular Devices), under the conditions of excitation at 530 nm and emission at 590 nm, 1 hour after the addition of the mixture. Inhibition by each compound was measured as % reduction in signal, compared to the control without an inhibitor (diluted DMSO only). The data were fixed to a four-variable logistic model, and […] values were calculated using the GraphPad Prism program.
row,SMILES,IC50
1,"CONC(=O)c1cc(-c2cccc(S(=O)(=O)N3CCCC3)c2)c2nnn(C/C(F)=C/CN)c2c1 [Example 133, (Z)-1-(4-amino-2-fluorobut-2-en-1-yl)-N-methoxy-4-(3-(pyrrolidin-1-ylsulfonyl)phenyl)-1H-benzo[d][1,2,3]triazol-6-carboxamide hydrochloride]",24.4 nM
2,"NC/C=C(\F)Cn1cnc2c(-c3cnn(CCO)c3)cc(C(F)(F)F)cc21 [Example 180, (Z)-2-(4-(1-(4-amino-2-fluorobut-2-en-1-yl)-6-(trifluoromethyl)-1H-benzo[d]imidazol-4-yl)-1H-pyrazol-1-yl)ethan-1-ol hydrochloride]",323 nM
3,"COC(=O)c1cc(-c2cccc(S(C)(=O)=O)c2)c2nnn(C/C(F)=C/CN)c2c1 [Example 118, methyl (Z)-1-(4-amino-2-fluorobut-2-en-1-yl)-4-(3-(methylsulfonyl)phenyl)-1H-benzo[d][1,2,3]triazol-6-carboxylate hydrochloride]",34 nM
4,"CON(C)C(=O)c1cc(-c2cccc(S(=O)(=O)N3CCCC3)c2)c2nnn(C/C(F)=C/CN)c2c1 [Example 137, (Z)-1-(4-amino-2-fluorobut-2-en-1-yl)-N-methoxy-N-methyl-4-(3-(pyrrolidin-1-ylsulfonyl)phenyl)-1H-benzo[d][1,2,3]triazol-6-carboxamide hydrochloride]",37 nM
5,"N#Cc1cc(-c2cccc(CO)c2Cl)c2ncn(C/C(F)=C/CN)c2c1 [Example 186, (Z)-1-(4-amino-2-fluoro-2-but-1-yl)-4-(2-chloro-3-(hydroxymethyl)phenyl)-1H-benzo[d]imidazol-6-carbonitrile hydrochloride]",109 nM
6,"NC/C=C(\F)Cn1nnc2c(-c3cc(CO)ccc3F)cc(C(F)(F)F)cc21 [Example 198, (Z)-(3-(1-(4-amino-2-fluorobut-2-en-1-yl)-6-(trifluoromethyl)-1H-benzo[d][1,2,3]triazol-4-yl)-4-fluorophenyl)methanol hydrochloride]",226 nM
7,"CONC(=O)c1cc(-c2cc(S(=O)(=O)NC3CC3)ccc2OC)c2nnn(C/C(F)=C/CN)c2c1 [Example 136, (Z)-1-(4-amino-2-fluorobut-2-en-1-yl)-4-(5-(N-cyclopropylsulfamoyl)-2-methoxyphenyl)-N-methoxy-1H-benzo[d][1,2,3]triazol-6-carboxamide hydrochloride]",6.4 nM
8,"COC(=O)c1cc(-c2cccc(S(=O)(=O)N3CCCC3)c2)c2nnn(C/C(F)=C/CN)c2c1 [Example 116, methyl (Z)-1-(4-amino-2-fluorobut-2-en-1-yl)-4-(3-(pyrrolidin-1-ylsulfonyl)phenyl)-1H-benzo[d][1,2,3]triazol-6-carboxylate hydrochloride]",52.4 nM
9,"COC(=O)c1cc(-c2ccc(OC)c(S(=O)(=O)NC(C)C)c2)c2ncn(C/C(F)=C/CN)c2c1 [Example 28, methyl (Z)-1-(4-amino-2-fluorobut-2-en-1-yl)-4-(3-(N-isopropylsulfamoyl)-4-methoxyphenyl)-1H-benzo[d]imidazol-6-carboxylate hydrochloride]",54.2 nM
10,"CCN(CC)S(=O)(=O)c1ccc(OC)c(-c2cc(C(=O)NOC)cc3c2nnn3C/C(F)=C/CN)c1 [Example 135, (Z)-1-(4-amino-2-fluorobut-2-en-1-yl)-4-(5-(N,N-diethylsulfamoyl)-2-methoxyphenyl)-N-m ethoxy-1H-benzo[d][1,2,3]triazol-6-carboxamide hydrochloride]",35.6 nM
11,"COC(=O)c1cc(-c2cccc(S(=O)(=O)NCc3ccc(OC)cc3)c2)c2ncn(C/C(F)=C/CN)c2c1 [Example 32, methyl (Z)-1-(4-amino-2-fluorobut-2-en-1-yl)-4-(3-(N-(4-methoxybenzyl)sulfamoyl)phenyl)-1H-benzo[d]imidazol-6-carboxylate hydrochloride]",60.1 nM
12,"CCN(CC)S(=O)(=O)c1cccc(-c2cc(C(=O)OC)cc3c2ncn3C/C(F)=C/CN)c1 [Example 37, methyl (Z)-1-(4-amino-2-fluorobut-2-en-1-yl)-4-(3-(N,N-diethylsulfamoyl)phenyl)-1H-benzo[d]imidazol-6-carboxylate hydrochloride]",70.3 nM
13,"CC(C)n1nccc1-c1cc(C(F)(F)F)cc2c1ncn2C/C(F)=C/CN [Example 178, (Z)-3-fluoro-4-(4-(1-isopropyl-1H-pyrazol-5-yl)-6-(trifluoromethyl)-1H-benzo[d]imidazol-1-yl)but-2-en-1-amine hydrochloride]",463 nM
14,"CCN(CC)S(=O)(=O)c1ccc(OC)c(-c2cc(C(=O)OC)cc3c2ncn3C/C(F)=C/CN)c1 [Example 26, methyl (Z)-1-(4-amino-2-fluorobut-2-en-1-yl)-4-(5-(N,N-diethylsulfamoyl)-2-methoxyphenyl)-1H-benzo[d]imidazol-6-carboxylate hydrochloride]",62.5 nM

# The remaining compounds from weak to strong by IC50, led by results:
row,IC50,SMILES
1,351 nM,"CCn1nccc1-c1cc(C(F)(F)F)cc2c1nnn2C/C(F)=C/CN [Example 203, (Z)-4-(4-(1-ethyl-1H-pyrazol-5-yl)-6-(trifluoromethyl)-1H-benzo[d][1,2,3]triazol-1-yl)-3-fluorobut-2-en-1-amine hydrochloride]"
2,330 nM,"NC/C=C(\F)Cn1nnc2c(-c3cncc(F)c3)cc(C(F)(F)F)cc21 [Example 200, (Z)-3-fluoro-4-(4-(5-fluoropyridin-3-yl)-6-(trifluoromethyl)-1H-benzo[d][1,2,3]triazol-1-yl)but-2-en-1-amine hydrochloride]"
3,305 nM,"NC/C=C(\F)Cn1nnc2c(-c3cccc(CO)c3Cl)cc(C(F)(F)F)cc21 [Example 199, (Z)-(3-(1-(4-amino-2-fluoro-2-en-1-yl)-6-(trifluoromethyl)-1H-benzo[d][1,2,3]triazol-4-yl)-2-chlorophenyl)methanol hydrochloride]"
4,204 nM,"Cn1nc(C(F)(F)F)cc1-c1cc(C#N)cc2c1ncn2C/C(F)=C/CN [Example 193, (Z)-1-(4-amino-2-fluorobut-2-en-1-yl)-4-(1-methyl-3-(trifluoromethyl)-1H-pyrazol-5-yl)-1H-benzo[d]imidazol-6-carbonitrile hydrochloride]"
5,182 nM,"NC/C=C(\F)Cn1nnc2c(-c3cnn(CCO)c3)cc(C(F)(F)F)cc21 [Example 205, (Z)-2-(4-(1-(4-amino-2-fluorobut-2-en-1-yl)-6-(trifluoromethyl)-1H-benzo[d][1,2,3]triazol-4-yl]-1H-pyrazol-1-yl)ethan-1-ol hydrochloride]"
6,131 nM,"N#Cc1cc(-c2cncc(F)c2)c2ncn(C/C(F)=C/CN)c2c1 [Example 188, (Z)-1-(4-amino-2-fluorobut-2-en-1-yl)-4-(5-fluoropyridin-3-yl)-1H-benzo[d]imidazol-6-carbonitrile hydrochloride]"
7,65 nM,"COc1ccc(S(=O)(=O)N2CCN(C)CC2)cc1-c1cccc2c1nnn2C/C(F)=C/CN [Example 113, (Z)-3-fluoro-4-(4-(2-methoxy-5-((4-methylpiperazin-1-yl)sulfonyl)phenyl)-1H-benzo[d][1,2,3]triazol-1-yl)but-2-en-1-amine hydrochloride]"
8,58.7 nM,"COC(=O)c1cc(-c2cccc(S(=O)(=O)N3CCC(F)(F)C3)c2)c2nnn(C/C(F)=C/CN)c2c1 [Example 115, methyl (Z)-1-(4-amino-2-fluorobut-2-en-1-yl)-4-(3-((3,3-difluoropyrrolidin-1-yl)sulfonyl)phenyl)-1H-benzo[d][1,2,3]triazol-6-carboxylate hydrochloride]"
9,19 nM,"CCS(=O)(=O)c1cccc(-c2cc(C(=O)OC)cc3c2nnn3C/C(F)=C/CN)c1 [Example 127, methyl (Z)-1-(4-amino-2-fluorobut-2-en-1-yl)-4-(3-(ethylsulfonyl)phenyl)-1H-benzo[d][1,2,3]triazol-6-carboxylate hydrochloride]"

# From patent publication US12686665B2, “Bicyclic fused ring derivative or salt thereof and pharmaceutical composition comprising same” (YUHAN CORPORATION, priority 2021, dated 2026)
